{
  "source": "patent US20250224410A1",
  "about": "“READY-TO-[…] FOR CHEMICAL ANALYSES AND QUANTIFICATION OF ANALYTES IN BIOLOGICAL SAMPLES” (PinPoint Testing, LLC, priority 2021, published 2025)",
  "key": {"[1]": {"tested_on": "purified recombinant beta glucuronidase (KURA)", "assay": "Storage stability of analytical standards in ready-to-use test kits at −20° C. with recombinant beta-glucuronidase", "type": "physicochemical", "details": "for stability of the standard in ready-to-use kits (free drug degradant peak area normalized to codeine): kits made with suspended solid state and solid state (direct enzyme interface, urine matrix interface) technology, snap frozen at −20° C., LC-MS/MS", "procedure": "(§1) Both (A) purified recombinant beta glucuronidase (KURA) and (B) beta glucuronidase purified from abalone tissue show similar results. Complete degradation was estimated by incubating the buprenorphine glucuronic acid standard under optimum reaction conditions for 1 hr. Negative controls were processed like that of mixed kits but excluded the respective beta-glucuronidase enzyme to measure non-specific degradation. All samples were extracted with acetonitrile prior to analysis using a liquid chromatography tandem mass spectrometry method optimized for buprenorphine. Where possible beta-glucuronidase enzyme was removed from suspended solid state, direct enzyme, and urine matrix samples prior to extraction. Acetonitrile was directly added to frozen mixed kits and negative controls to immediately degrade the beta glucuronidase enzyme. Removal of enzyme prior to extraction and the quick addition of acetonitrile limited degradation associated with sample processing and provided a better measurement of storage stability. Peak area of the degradant (free drug) was normalized to the response of codeine which was included to control for day-to-day and analytical variation. Data are presented as average±standard deviation (n=3-4). All experimental groups were manufactured and snap frozen at −20° C. prior to analysis.\n(§2) Therefore, novel technology is required to stabilize process control specimens if ready-to-use formats are to be developed for analytical laboratories. Three new technologies (suspended solid state, direct enzyme interface, and urine matrix interface technology) were investigated to determine their utility in ready-to-use analytical test kit designs. While all three technologies afforded significant protection and stabilized the manufacturing process, only the suspended state and urine matrix technologies provided complete stability for 14 days in kits stored at −20° C.\n(§3) The amount of degradation is independent of the source of the beta glucuronidase and remains constant for 14 days when kits are stored at −20° C. This storage temperature was selected because it is mostly commonly utilized by analytical testing laboratories. Degradation is specifically associated with manufacturing and storage because acetonitrile used for sample extraction was added immediately to frozen kits to degrade the beta-glucuronidase enzyme prior to sample processing and where possible (solid-state, direct enzyme interface, and matrix interface samples) the beta-glucuronidase enzyme was removed prior to sample extraction. These measures minimized any degradation that may have occurred during sample processing.\nA 48-well plate from Innovative Labs (48 Rectangular Well U-Bottom 42.60 mm Height, 4.6 mL capacity) was formulated with various combinations of a mixture of glucuronidated drugs purchased from Cerilliant, Round Rock Texas, US (see details in table below), abalone enzyme (item #CST208) from ChemSci technologies, Belvidere IL, USA, Recombinant B-One (item #B-One-100 mL) enzyme from Kura Bioscience, buffer solution made with 5 mL of acetic acid and 7.71 g of ammonium acetate in 995 mL of pure water, and blank urine (item #OH2060) from Golden West Diagnostics.\nWells E1, F1, G1, and H1 designated as “Kura Pos. control drugs+Enz” contain the glucuronide drug standards in 50 μL DMSO mixed with […] of water and […] of Kura enzyme. The materials in this well were stored in frozen state before use.\nWells A3, B3, C3, and D3 designated as “DB pop removed Kura” contain the glucuronide drug standards in 50 μL DMSO and a suspended frozen mixture of […] of water and […] of Kura enzyme (see example 5: manufacturing process D). The materials in this well were stored in frozen state before use and the frozen enzyme and water mixture was removed prior to analysis of the well contents."}, "[2]": {"tested_on": "beta glucuronidase purified from abalone tissue", "assay": "Storage stability of analytical standards in ready-to-use test kits at −20° C. with abalone beta-glucuronidase", "type": "physicochemical", "details": "for stability of the standard in ready-to-use kits (free drug degradant peak area normalized to codeine): kits made with suspended solid state and solid state (direct enzyme interface, urine matrix interface) technology, snap frozen at −20° C., LC-MS/MS; for stability of the standard, suspended solid state technology / stability of the standard, urine matrix interface technology: up to 14 days", "procedure": "as §1\nFIG. 5. […] Negative controls were processed like that of mixed kits but excluded the respective beta-glucuronidase enzyme to measure non-specific degradation. Since 6-MAM was directly assayed complete degradation was estimated at the limit of detection (S/N≤10) established for the liquid chromatography tandem mass spectrometry method optimized for 6-MAM detection. All samples were extracted with acetonitrile prior to analysis. Where possible beta-glucuronidase enzyme was removed from suspended solid state, direct enzyme, and urine matrix samples prior to extraction. Acetonitrile was directly added to frozen mixed kits and negative controls to immediately degrade beta glucuronidase enzyme. Removal of enzyme prior to extraction and the quick addition of acetonitrile limited degradation associated with sample processing and provided a better measurement of storage stability. Peak area of 6-MAM was normalized to the response of codeine which was included to control for day-to-day and analytical variation. Data are presented as average±standard deviation (n=3-4). All experimental groups were manufactured and snap frozen at −20° C. prior to analysis.\nas §2, §3"}, "[3]": {"details": "kits stored at −20° C., up to 14 days"}, "[4]": {"details": "mixed kits, snap frozen and stored at −20° C."}},
  "note": "“Also recorded” adds a separate entry of the source.",
  "data": [
    {"smiles": "C[N+](C)(CCC=C1c2ccccc2CCc2ccccc21)[C@@H]1O[C@H](C(=O)[O-])[C@@H](O)[C@@H](O)[C@H]1O", "note": "[amitriptyline glucuronic acid standard, Amitriptyline N-beta-D-glucuronide]", "values": [
      {"measurement": "stability of the standard in ready-to-use kits (free drug degradant peak area normalized to codeine)", "setting": "[1]", "result": "fully protected and stabilized"},
      {"measurement": "stability of the standard in ready-to-use kits (free drug degradant peak area normalized to codeine)", "setting": "[2]", "result": "fully protected and stabilized"}
    ]},
    {"smiles": "CN1CC[C@]23c4c5ccc(O[C@@H]6O[C@H](C(=O)O)[C@@H](O)[C@H](O)[C@H]6O)c4O[C@H]2C(=O)CC[C@H]3[C@H]1C5", "note": "[hydromorphone glucuronic acid standard, Hydromorphone 3-beta-D-glucuronide]", "values": [
      {"measurement": "stability of the standard in ready-to-use kits (free drug degradant peak area normalized to codeine)", "setting": "[1]", "result": "fully protected and stabilized"},
      {"measurement": "stability of the standard in ready-to-use kits (free drug degradant peak area normalized to codeine)", "setting": "[2]", "result": "fully protected and stabilized"}
    ]},
    {"smiles": "O=C1Nc2ccc(Cl)cc2C(c2ccccc2Cl)=NC1O[C@@H]1O[C@H](C(=O)O)[C@@H](O)[C@H](O)[C@H]1O", "note": "(stereo partly shown) [lorazepam glucuronic acid standard, Lorazepam glucuronide]", "values": [
      {"measurement": "stability of the standard in ready-to-use kits (free drug degradant peak area normalized to codeine)", "setting": "[1]", "result": "fully protected and stabilized"},
      {"measurement": "day at which complete degradation occurred, direct enzyme interface technology", "setting": "[1]; kits stored at −20° C.", "result": 14, "unit": "day"},
      {"measurement": "day at which significant degradation was detected, direct enzyme interface technology", "setting": "[1]; kits stored at −20° C.", "result": 4, "unit": "day"},
      {"measurement": "storage time for which the standard was protected, direct enzyme interface technology", "setting": "[1]; kits stored at −20° C.", "result": 1, "unit": "day"},
      {"measurement": "stability of the standard, suspended solid state technology", "setting": "[1]; [3]", "result": "fully protected"},
      {"measurement": "stability of the standard, urine matrix interface technology", "setting": "[1]; [3]", "result": "fully protected"},
      {"measurement": "stability of the standard in ready-to-use kits (free drug degradant peak area normalized to codeine)", "setting": "[2]", "result": "fully protected and stabilized"},
      {"measurement": "day at which complete degradation occurred, direct enzyme interface technology", "setting": "[2]; kits stored at −20° C.", "result": 14, "unit": "day"},
      {"measurement": "day at which significant degradation was detected, direct enzyme interface technology", "setting": "[2]; kits stored at −20° C.", "result": 4, "unit": "day"},
      {"measurement": "storage time for which the standard was protected, direct enzyme interface technology", "setting": "[2]; kits stored at −20° C.", "result": 1, "unit": "day"},
      {"measurement": "stability of the standard, suspended solid state technology", "setting": "[2]; kits stored at −20° C.", "result": "fully protected"},
      {"measurement": "stability of the standard, urine matrix interface technology", "setting": "[2]; kits stored at −20° C.", "result": "fully protected"}
    ]},
    {"smiles": "CO[C@]12CC[C@@]3(C[C@@H]1[C@](C)(O)C(C)(C)C)[C@H]1Cc4ccc(O[C@@H]5O[C@H](C(=O)O)[C@@H](O)[C@H](O)[C@H]5O)c5c4[C@@]3(CCN1CC1CC1)[C@H]2O5", "note": "[buprenorphine glucuronic acid standard, Buprenorphine-3-beta-D-glucuronide]", "values": [
      {"measurement": "stability of the standard in ready-to-use kits (free drug degradant peak area normalized to codeine)", "setting": "[1]", "result": "fully protected and stabilized"},
      {"measurement": "stability of the standard in ready-to-use kits (free drug degradant peak area normalized to codeine)", "setting": "[2]", "result": "fully protected and stabilized"}
    ]},
    {"smiles": "CC(=O)O[C@H]1C=C[C@H]2[C@H]3Cc4ccc(O)c5c4[C@@]2(CCN3C)[C@H]1O5", "note": "[6-MAM, 6-monoacetylmorphine]", "values": [
      {"measurement": "stability of the standard in kits that mix enzyme with the analytical standard", "setting": "[1]; [4]", "result": "no 6-MAM degradation occurred"},
      {"measurement": "stability of the standard, direct enzyme interface technology", "setting": "[2]; kits stored at −20° C.", "result": "slowed the rate of degradation but did not prevent 6-MAM degradation"},
      {"measurement": "stability of the standard, suspended solid state technology", "setting": "[2]; kits stored at −20° C.", "result": "fully protected; also recorded: fully protects and stabilizes"},
      {"measurement": "stability of the standard, urine matrix interface technology", "setting": "[2]; kits stored at −20° C.", "result": "slowed the rate of degradation but did not prevent 6-MAM degradation"},
      {"measurement": "time to significant degradation in mixed kits", "setting": "[2]; mixed kits stored at −20° C.", "result": "≤ 4", "unit": "days"},
      {"measurement": "stability of the standard in kits that mix enzyme with the analytical standard", "setting": "[2]; [4]", "result": "not stable"},
      {"measurement": "degradation during the manufacturing process (day 0) in mixed kits", "setting": "[2]; snap freezing at −20° C., day 0", "result": "no degradation occurred"}
    ]}
  ]
}
